Source: ChEMBL document CHEMBL6177951, “Synthesis and anti-MRSA activity of quaternized small molecule antimicrobial peptide mimics based on norharmane” (Eur J Med Chem, 2025)
Active and inactive are the calls of the source. The rule behind the calls is not given here.

How the values were obtained:
Staphylococcus aureus [1] = test: Antibacterial activity against Staphylococcus aureus ATCC 25923 assessed as inhibition of bacterial growth incubated for 14 hrs by two-fold serial dilution method; type: functional
Staphylococcus aureus [2] = test: Antibacterial activity against Staphylococcus aureus ATCC 33591 assessed as inhibition of bacterial growth at 1 to 2 times MIC measured after 24 hrs by growth kinetic assay; type: functional, organism-based
Staphylococcus aureus [3] = test: Antibacterial activity against methicillin-resistant Staphylococcus aureus assessed as reduction in bacterial growth by measuring fold increase in MIC in presence of 32 ug/ml peptidoglycan incubated for 0.5 hrs by exogenous addition assay; type: functional
Cell membrane [4] = test: Induction of cytoplasmic membrane depolarization in methicillin-resistant Staphylococcus aureus assessed as increase in fluorescence intensity by DiSC35 dye based microplate reader analysis; type: subcellular
Staphylococcus aureus [5] = test: In vivo antibacterial activity against methicillin-resistant Staphylococcus aureus infected in female Kunming mouse skin infection model assessed as log reduction in bacterial load at 20 mg/kg measured after 48 hrs (reference value: 14.34 log10CFU/g); type: functional
Staphylococcus aureus [6] = test: Antibacterial activity against methicillin-resistant Staphylococcus aureus incubated for 6 hrs in presence of 10 to 60% sheep plasma; type: functional, organism-based
[7] = Acute toxicity in female Kunming mouse assessed as aberrant behavior at 500 to 2000 mg/kg, sc measured after 7 days; type: organism-based; conditions: in vivo, 168 h, dose 500-2000 mg/kg, time 7 day
Staphylococcus aureus [8] = test: Antibacterial activity against methicillin-resistant Staphylococcus aureus clinical isolate M-13 incubated for 14 hrs by two-fold serial dilution method; type: functional
Staphylococcus aureus [9] = test: Bactericidal activity against Staphylococcus aureus ATCC 33591 assessed as eradication of bacteria at 4 times MIC measured at 4 hrs by time-kill kinetic assay relative to control; type: functional
Staphylococcus aureus [10] = test: In vivo antibacterial activity against methicillin-resistant Staphylococcus aureus infected in female Kunming mouse skin infection model assessed as recovery of dorsal surface at 5 to 20 mg/kg measured after 48 hrs; type: functional, organism-based; conditions: dose 5-20 mg/kg
Staphylococcus aureus [11] = test: Antibacterial activity against methicillin-resistant Staphylococcus aureus clinical isolate M-15 incubated for 14 hrs by two-fold serial dilution method; type: functional
Staphylococcus aureus [12] = test: Antibiofilm activity against methicillin-resistant Staphylococcus aureus assessed as inhibition of biofilm formation at 2 ug/ml incubated for 24 hrs by crystal violet staining based analysis relative to control; type: functional; set-up: scale not given: the % may be the effect or the level left; conditions: dose 2 µg/ml
Calf thymus DNA [13] = test: Binding affinity to calf thymus DNA assessed as dissociation constant by ITC assay; type: nucleic-acid assay, Bos taurus
Staphylococcus aureus [14] = test: Induction of morphological changes in methicillin-resistant Staphylococcus aureus assessed as appearance of rough cell surface at 0.5 ug/ml incubated for 6 hrs by SEM analysis; type: functional, organism-based; conditions: dose 0.5 µg/ml
Staphylococcus aureus [15] = test: Antibacterial activity against Staphylococcus aureus ATCC 33591 assessed as resistance development by measuring fold increase in MIC at 0.5 times MIC incubated for 8 hrs and measured after 15 passages; type: functional
Staphylococcus aureus [16] = test: Induction of morphological changes in methicillin-resistant Staphylococcus aureus assessed as appearance of broken cells at 0.5 ug/ml incubated for 6 hrs by SEM analysis; type: functional, organism-based; conditions: dose 0.5 µg/ml
Staphylococcus aureus [17] = test: Antibacterial activity against methicillin-resistant Staphylococcus aureus clinical isolate M-14 incubated for 14 hrs by two-fold serial dilution method; type: functional
Cell membrane [18] = test: Induction of cell membrane permeability in methicillin-resistant Staphylococcus aureus assessed as increase in protein leakage at 2 ug/ml incubated for 8 hrs by Bradford assay; type: subcellular; conditions: dose 2.0 µg/ml
Staphylococcus aureus [19] = test: Antibacterial activity against methicillin-resistant Staphylococcus aureus clinical isolate M-18 incubated for 14 hrs by two-fold serial dilution method; type: functional
Staphylococcus aureus [20] = test: Antibacterial activity against Staphylococcus aureus CMCC 26003 assessed as inhibition of bacterial growth incubated for 14 hrs by two-fold serial dilution method; type: functional
[21] = Toxicity in female Kunming mouse assessed as inflammatory cell infiltration at 5 to 20 mg/kg, sc measured after 48 hrs by H and E staining based analysis; type: organism-based; conditions: in vivo, dose 5-20 mg/kg
Staphylococcus aureus [22] = test: Antibacterial activity against methicillin-resistant Staphylococcus aureus clinical isolate M-20 incubated for 14 hrs by two-fold serial dilution method; type: functional
Calf thymus DNA [23] = test: Binding affinity to calf thymus DNA assessed as change in Gibbs free energy at 3 uM by ITC assay; type: nucleic-acid assay; conditions: Bos taurus
L02 = test: Cytotoxicity against human L02 cells assessed as reduction in cell viability at 0.25 ug/ml incubated for 24 hrs by CCK-8 assay relative to control; type: toxicity, cell-based; conditions: l02, 24 h, at 0.25 µg/mL
Staphylococcus aureus [24] = test: Antibacterial activity against methicillin-resistant Staphylococcus aureus clinical isolate M-21 incubated for 14 hrs by two-fold serial dilution method; type: functional
Staphylococcus aureus [25] = test: Antibacterial activity against methicillin-resistant Staphylococcus aureus clinical isolate M-23 incubated for 14 hrs by two-fold serial dilution method; type: functional
Staphylococcus aureus [26] = test: Antibiofilm activity against methicillin-resistant Staphylococcus aureus assessed as disruption of preformed biofilm at 0.25 to 16 ug/ml incubated for 24 hrs by crystal violet staining based analysis; type: functional, organism-based; conditions: dose 0.25-16 µg/ml
Calf thymus DNA [27] = test: Binding affinity to calf thymus DNA assessed as binding constant by ITC assay; type: nucleic-acid assay; conditions: Bos taurus
Staphylococcus aureus [28] = test: Antibacterial activity against methicillin-resistant Staphylococcus aureus assessed as reduction in bacterial growth in presence of 16 ug/ml peptidoglycan incubated for 0.5 hrs by exogenous addition assay; type: functional, organism-based
Staphylococcus aureus [29] = test: Antibacterial activity against methicillin-resistant Staphylococcus aureus clinical isolate M-16 incubated for 14 hrs by two-fold serial dilution method; type: functional
Cell membrane [30] = test: Induction of cell membrane permeability in methicillin-resistant Staphylococcus aureus assessed as increase in nucleic acid leakage at 2 ug/ml incubated for 8 hrs; type: subcellular; conditions: dose 2.0 µg/ml
Staphylococcus aureus [31] = test: In vivo antibacterial activity against methicillin-resistant Staphylococcus aureus infected in female Kunming mouse skin infection model assessed as reduction in bacterial load measured after 48 hrs; type: functional, organism-based; conditions: dose 5-20 mg/kg
Staphylococcus aureus [32] = test: Antibacterial activity against Staphylococcus aureus ATCC 33591 assessed as inhibition of bacterial growth at 0.5 times MIC measured at 0 to 12 hrs by growth kinetic assay; type: functional, organism-based; conditions: time 0-12 hrs
[33] = Acute toxicity in female Kunming mouse assessed as aberrant appearance at 500 to 2000 mg/kg, sc measured after 7 days; type: organism-based; conditions: in vivo, 168 h, dose 500-2000 mg/kg, time 7 day
Staphylococcus aureus [34] = test: Induction of morphological changes in methicillin-resistant Staphylococcus aureus assessed as appearance of fragments at 0.5 ug/ml incubated for 6 hrs by SEM analysis; type: functional, organism-based; conditions: dose 0.5 µg/ml
Staphylococcus aureus [35] = test: Induction of ROS generation in methicillin-resistant Staphylococcus aureus assessed as fold increase in fluorescence intensity at 2 ug/ml incubated for 8 hrs by DCFH-DA dye analysis; type: functional; conditions: dose 2 µg/ml
Staphylococcus aureus [36] = test: Induction of oxidative damage in methicillin-resistant Staphylococcus aureus assessed as reduction in SOD activity incubated for 8 hrs; type: functional, organism-based; conditions: dose 0.25-2 µg/ml
Lipoteichoic acid = test: Displacement of BODIPY-TR-cadaverine from Staphylococcus aureus LTA assessed as increase in fluorescence intensity at 2 ug/ml incubated for 0.5 hrs by fluorescence based analysis relative to control; conditions: dose 2.0 µg/ml
Staphylococcus aureus [37] = test: Antibacterial activity against methicillin-resistant Staphylococcus aureus clinical isolate M-22 incubated for 14 hrs by two-fold serial dilution method; type: functional
Staphylococcus aureus [38] = test: Antibacterial activity against methicillin-resistant Staphylococcus aureus clinical isolate M-19 incubated for 14 hrs by two-fold serial dilution method; type: functional

C[n+]1ccc2c3ccccc3n(CCCCCCCCCCCn3c4ccccc4c4cc[n+](C)cc43)c2c1.[I-].[I-]
MIC (Staphylococcus aureus [1]): 1 µg/mL
Activity (Staphylococcus aureus [2]): Active
fold change (FC) (Staphylococcus aureus [3]): 4
Activity (Cell membrane [4]): Dose-dependent-effect
Activity (Staphylococcus aureus [5]): 7.29 log10CFU/g
Activity (Staphylococcus aureus [6]): Active
Activity [7]: Non-toxic
MIC (Staphylococcus aureus [8]): 1 µg/mL
Activity (Staphylococcus aureus [9]): 100%
Activity (Staphylococcus aureus [10]): Active
MIC (Staphylococcus aureus [11]): 0.5 µg/mL
Activity (Staphylococcus aureus [12]): 79%
Kd (Calf thymus DNA [13]): 4.52 µM
Activity (Staphylococcus aureus [14]): Active
fold change (FC) (Staphylococcus aureus [15]): 2
Activity (Staphylococcus aureus [16]): Active
MIC (Staphylococcus aureus [17]): 0.25 µg/mL
Activity (Cell membrane [18]): 27.8 µg/mL
MIC (Staphylococcus aureus [19]): 0.5 µg/mL
MIC (Staphylococcus aureus [20]): 0.25 µg/mL
Activity [21]: Non-toxic
MIC (Staphylococcus aureus [22]): 0.5 µg/mL
deltaG (Calf thymus DNA [23]): -7.29 kcal/mol
Activity (L02): 97.25%
MIC (Staphylococcus aureus [24]): 1 µg/mL
MIC (Staphylococcus aureus [25]): 0.5 µg/mL
Activity (Staphylococcus aureus [26]): inactive
K (Calf thymus DNA [27]): 2.21 10^5/M
Activity (Staphylococcus aureus [28]): Active
MIC (Staphylococcus aureus [29]): 0.5 µg/mL
Activity (Cell membrane [30]): Active
Activity (Staphylococcus aureus [31]): Dose-dependent-effect
Activity (Staphylococcus aureus [32]): Active
Activity [33]: Non-toxic
Activity (Staphylococcus aureus [34]): Active
fold change (FC) (Staphylococcus aureus [35]): 4.34
Activity (Staphylococcus aureus [36]): Dose-dependent-effect
Activity (Lipoteichoic acid): 31.7%
MIC (Staphylococcus aureus [37]): 0.5 µg/mL
MIC (Staphylococcus aureus [38]): 0.5 µg/mL
